Where two headings read alike, the source gives them in different places.
Columns and labels:
lipoxygenase = molecular target: T1, lipoxygenase (Rattus norvegicus, UniProt P12527); assay: Inhibition activity to lipoxygenase (leukotriene production by rat abdominal cells, bioassay on guinea pig ileum); assay type: cell-based, Wister rat; conditions: read-out: Inhibition intensity; for inhibition at 1 µM: 10^-6 M (final concentration)
T1 construct: abdominal cells of Wister rat (7 to 12 week-age); endogenous in cells; host or cells: abdominal (peritoneal) cells of Wister [Wistar] rat
T1 sequence (P12527 1-673): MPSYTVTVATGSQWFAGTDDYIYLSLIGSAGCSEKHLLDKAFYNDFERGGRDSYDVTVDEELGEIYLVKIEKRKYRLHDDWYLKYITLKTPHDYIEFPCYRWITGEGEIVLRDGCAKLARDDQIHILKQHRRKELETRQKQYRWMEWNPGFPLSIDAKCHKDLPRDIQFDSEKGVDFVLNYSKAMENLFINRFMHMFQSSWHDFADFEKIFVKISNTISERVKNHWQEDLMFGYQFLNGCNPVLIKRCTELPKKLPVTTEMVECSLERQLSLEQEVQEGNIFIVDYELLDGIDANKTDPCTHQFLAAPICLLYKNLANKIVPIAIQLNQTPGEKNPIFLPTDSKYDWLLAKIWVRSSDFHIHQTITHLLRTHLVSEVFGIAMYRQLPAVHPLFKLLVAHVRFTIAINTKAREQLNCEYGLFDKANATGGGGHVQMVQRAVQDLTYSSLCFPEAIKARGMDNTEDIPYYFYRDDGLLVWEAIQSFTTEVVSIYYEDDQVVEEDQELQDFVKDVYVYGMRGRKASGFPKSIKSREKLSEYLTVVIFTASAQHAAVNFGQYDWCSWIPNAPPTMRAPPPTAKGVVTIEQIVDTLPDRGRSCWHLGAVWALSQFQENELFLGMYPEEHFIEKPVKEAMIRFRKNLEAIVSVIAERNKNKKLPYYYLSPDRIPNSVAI
Protocol: In 0.9 ml of Hunks' solution, were suspended 2×10^6 of abdominal cells of Wister rat (7 to 12 week-age) and incubated at 37° C. for 15 min after adding 10^-7 M of arachidonic acid and the compound of the present invention dissolved in ethanol, or only 10^-7 M of arachidonic acid and ethanol as a control. Further, 100 μl of 5 μg/μl of calcium inonophore A-23187 was added and the incubation was further continued at 37° C. for 15 min to produce leukotrienes. After cooling the reaction mixture with ice for 20 min to terminate the reaction, the reaction mixture was subjected to centrifugation at 4° C. for 10 min at 3000 rpm. The inhibition activity to lipoxygenase of the compound according to the present invention was measured by bioassay of leukotrienes contained in the resultant supernatants by using a Magunus' device while taking the contraction reaction of ileum extirpated from guinea pig as the indication. The inhibition rate of the compound according to the present invention was calculated based on the ratio of the suppression due to the compound with respect to the extent of the contraction reaction in the control group, and the intensity of inhibition based thereon is shown in the following Tables 4 and 5 (Compound numbers in Tables 4 and 5 correspond to the Compound numbers in Table 1).

[1] = parameters: species or system ICR male mice; conditions: mouse, in vivo, po, 2000 mg/kg
Protocol: The compounds according to the present invention (Compound No. 44 in Table 1) suspended in an aqueous 1% tragacanth solution was orally administrated by 2000 mg/kg to 6 week-age ICR male mice.

[2] = tested on: Ear Edema Caused by Arachidonic Acid; assay: Suppressing effect on ear edema caused by arachidonic acid; assay type: in vivo, ICR male mice; conditions: Mus musculus, 1 h, thickness after one hour, read-out: Suppression rate (ear edema); for inhibition in vivo at 50 mg/kg: oral administration, one hour before inflammatory agent (2 mg arachidonic acid); for inhibition in vivo at 0.1 mg: topical, local application, 0.1 mg/auricle, 30 min before inflammatory agent (2 mg arachidonic acid)
Protocol: The thickness of auricles of ICR male mice of 6 week-age was measured by using a micrometer. On both sides of one of the auricles of each mouse, was applied 2 mg of arachidonic acid dissolved in acetone as the inflammatory agent to cause inflammation thereon. The thickness of the auricle after one hour of the application was measured and the difference between the thickness obtained and the thickness before the application was taken as the value of ear edema. The compound according to the present invention dissolved in ethanol or only ethanol as a control were orally administrated or applied localy. In the case of oral administration, 50 mg/kg of the compound according to the present invention was administrated one hour before the application of the inflammatory agent, and 0.1 mg/auricle was applied 30 min before the application in the case of local application.
The suppression rate of ear edema of the compound according to the present invention was calculated based on the ratio of the suppression to the value of ear edema in the control group and the results are shown in Tables 6 and 7 (Compound numbers in Tables 6 and 7 correspond to the Compound numbers in Table 1).
Further, benoxaprofen and NDGA were used as the comparison.

[3] = literature; cited from earlier work
[4] = 10^-5 M (final concentration), rat abdominal cells, calcium ionophore A-23187
[5] = rat abdominal cells, calcium ionophore A-23187

inhibition at 10 µM (lipoxygenase; [4]) [%]	inhibition at 1 µM (lipoxygenase; [5]) [%]	Structure (SMILES)	also measured
50 to 80	20 to 50	Fc1ccc(OCCCCOc2ccc(Cc3nc4ccccc4o3)cc2)cc1 [Compound 15]	–
50 to 80	–	CC#CCOc1cccc(Cc2nc(-c3ccccc3)co2)c1 [Compound 129]	–
80 to 100	–	Clc1cc(Cc2nc3ccccc3o2)ccc1OCCCC#Cc1ccccc1 [Compound 47]	–
50 to 80	20 to 50	Clc1ccc(OCCCCOc2ccc(Cc3nc4ccccc4o3)cc2Cl)cc1 [Compound 62]	inhibition in vivo at 0.1 mg [2]: 32.9%
80 to 100	20 to 50	C(#CCOc1ccccc1Cc1nc2ccccc2o1)CCCC#Cc1ccccc1 [Compound 90]	–
50 to 80	20 to 50	C(#Cc1ccccc1)CCCOc1ccccc1Cc1nc2ccccc2o1 [Compound 89]	–
80 to 100	–	Clc1cc(OCCCCOc2ccccc2)ccc1Cc1nc2ccccc2o1 [Compound 6]	inhibition in vivo at 0.1 mg [2]: 48.5%
50 to 80	20 to 50	Cc1ccccc1OCCCCOc1ccc(Cc2nc3ccccc3o2)cc1 [Compound 10]	–
–	–	CC(C(=O)O)c1ccc2oc(-c3ccc(Cl)cc3)nc2c1 (centres unmarked) [Benoxaprofen, benoxaprofen]	adverse effect [3]: grave adverse effect; effect on psoriasis [3]: effective to psoriasis; inhibition in vivo at 50 mg/kg [2]: 15.3%
50 to 80	–	C#CCCCC#CCOc1ccccc1Cc1nc2ccccc2o1 [Compound 98]	inhibition in vivo at 0.1 mg [2]: 50.2%
80 to 100	–	CCCCOc1cccc(Cc2nc3ccccc3o2)c1 [Compound 71]	inhibition in vivo at 50 mg/kg [2]: 77.9%
50 to 80	20 to 50	COCCCCOc1ccc(Cc2nc3ccccc3o2)cc1 [Compound 25]	–
80 to 100	20 to 50	c1ccc(OCCCOc2ccc(Cc3nc4ccccc4s3)cc2)cc1 [Compound 1, 2-[4-(3-phenoxy)propoxybenzyl]benzothiazole]	–
50 to 80	–	CC#CCOc1ccc(Cc2nc3ccccc3o2)c(Cl)c1 [Compound 34]	inhibition in vivo at 0.1 mg [2]: 42.9%
80 to 100	20 to 50	c1ccc(OCCCCCCOc2ccc(Cc3nc4ccccc4o3)cc2)cc1 [Compound 5]	–
80 to 100	–	CC#CCOc1ccccc1Cc1nc2ccccc2o1 [Compound 96]	inhibition in vivo at 50 mg/kg [2]: 71.8%
–	–	C#CCCCOc1c(Cl)cccc1Cc1nc(-c2ccccc2)co1 [Compound 125]	inhibition in vivo at 0.1 mg [2]: 41.7%
50 to 80	20 to 50	C#CCCCOc1ccc(Cl)cc1Cc1nc2ccccc2o1 [Compound 112]	–
80 to 100	–	OCC#CCCCC#CCCCOc1ccc(Cc2nc3ccccc3o2)cc1Cl [Compound 57]	inhibition in vivo at 0.1 mg [2]: 49.8%
80 to 100	20 to 50	CCCC#CCOc1ccc(Cc2nc3ccccc3o2)cc1 [Compound 37]	inhibition in vivo at 0.1 mg [2]: 42.1%
–	–	CC(Cc1ccc(O)c(O)c1)C(C)Cc1ccc(O)c(O)c1 (centres unmarked) [NDGA, Nordihydroguaiaretic acid, reference compound]	inhibition at 10 µM (lipoxygenase): 0 to 20%; inhibition in vivo at 0.1 mg [2]: 18.2%
80 to 100	50 to 80	CC#CCOc1cccc(Cl)c1Cc1nc2ccccc2o1 [Compound 100]	–
80 to 100	50 to 80	c1ccc(COCCCOc2ccc(Cc3nc4ccccc4o3)cc2)cc1 [Compound 19]	–
50 to 80	20 to 50	Clc1ccccc1OCCCCOc1ccc(Cc2nc3ccccc3o2)cc1 [Compound 7]	–
80 to 100	20 to 50	C(#Cc1ccccc1)CCCOc1ccc(Cc2nc3ccccc3o2)cc1 [Compound 29]	–
80 to 100	20 to 50	c1ccc(OCCCOc2ccc(Cc3nc4ccccc4o3)cc2)cc1 [Compound 2, 2-[4-(3-phenoxy)propoxybenzyl]benzoxazole]	–
80 to 100	20 to 50	CC#CCOc1cccc(Cc2nc3ccccc3o2)c1 [Compound 73]	inhibition in vivo at 50 mg/kg [2]: 85.1%
80 to 100	50 to 80	COCCCCOc1ccc(Cc2nc3ccccc3o2)cc1Cl [Compound 51]	–

Structure (SMILES)	inhibition at 10 µM (lipoxygenase; [4]) [%]	inhibition at 1 µM (lipoxygenase; [5]) [%]	also measured
Clc1cc(Cc2nc3ccccc3o2)ccc1OCCCCOc1ccccc1 [Compound 44]	80 to 100	50 to 80	Anatomic inspection [1]: no abnormality was observed; Condition and body weight [1]: no change was recognized at all; inhibition in vivo at 50 mg/kg [2]: 80.7%

Reference: US5206255A, “Heterocyclic compound” (Mitsubishi Kasei Corporation, priority 1989, dated 1993)
